Assay results reported in patent US4301313A, “Halogenated ethynyl biphenyls” (Eli-Lilly and Company, priority 1974, dated 1981).
Values joined by “and” are separate entries in the source; they are usually repeats but may differ in a detail not shown here. Identical values can stand only once.

Assays:
[1] = control of inflammation in dogs (ultraviolet-induced erythema, abdominal skin); assay type: in vivo, dog
Experimental: (4-(2-Fluorophenyl)phenyl)acetylene was also evaluated for the control of inflammation in dogs. The testing procedures were the same as reported in the preceding examples except for these differences: a 10-second exposure time was used; non-pigmented abdominal skin was used; and the observed erythema was graded every half hour over a three-hour period with no weighting of scores. A placebo control was run with the same test dogs on the day prior to treatment.

[2] = adjuvant-induced arthritis test (paw volume); assay type: in vivo, rat (male albino); settings: rat, oral
[3] = carrageenin induced test, compound administered about 20 hours prior; assay type: in vivo; settings: rat, dose 10 (unit not given), about 20 hours prior to test
Experimental: Representative compounds were also evaluated for anti-inflammatory activity in the test method described by C. A. Winter at 111 Proc. Soc. Exp. Biol. Med., 544 (1962). In this method, inflammation is created by injecting carrageenin into the hind paw of rats. Test compounds are administered prior to injection to determine percent inhibition of the subsequent inflammation, in comparison with control animals.
Each of 4-biphenylylacetylene and (4-(2-fluorophenyl)phenyl)acetylene was evaluated again in the carrageenin induced test method reported in Examples 60-80. However, in these tests, the compound was administered about 20 hours prior to the test procedures.

[4] = ultraviolet-induced erythema blocking test, oral (modified Winder method); assay type: in vivo, guinea pig (male albino); settings: Cavia porcellus, guinea pig, weighted scores 1.0-2.5 h after UV, dose which provides 50% inhibition
Experimental: (§1) The compounds of the present invention were evaluated for anti-inflammatoryactivity by the ultraviolet-induced erythema blocking test. The test procedures were a modification of the Winder method (Winder, C. V.; Wax, J.; Burr, V.; Been, M.; and Posiere, C. E.: A Study of Pharmacological Influences on Ultraviolet Erythema in Guinea Pigs. Arch. Int. Pharmacodyn. 116: 261, 1958). Male albino guinea pigs weighing 240-300 gm. were used. The hair on the back was clipped and chemically depilated 15-18 hours before each experiment. The animals were fasted overnight, and on the day of the experiment, were randomized and placed in clear plastic partitioned holders 10×20 cm. wide and 15 cm. high.
(§2) The compounds to be tested were suspended in 1% methyl cellulose in water, utilizing a tissue homogenizer. The suspensions were administered orally in a volume of 2.0 ml./kg. of body weight. Control animals received an equal amount of the vehicle.
(§3) The source of ultraviolet light was a Hanovia lamp (Kromayer-Model 10). A notebook reinforcement ring was placed upon the lens of the lamp to provide an area of contrast for grading purposes. The lens was then placed in contact with the skin of the guinea pig's back. Exposure time to UV was for a period of 4 seconds. Beginning one hour after exposure and thereafter at half-hour intervals for another 11/2 hours, the degree of resulting erythema was graded by an arbitrary scoring system based upon the degree of contrast and redness formed. Anti-inflammatory agents delay the development of the erythema and have their greatest effect at the initial grading periods. The scores were, therefore, weighted by factors of 4, 3, 2, and 1 at the 1.0, 1.5, 2.0, and 2.5 hour scoring times, respectively. The erythema was graded as follows:
Total scores from each treatment group of four guinea pigs were compared to the scores of the control group. The percent inhibition was calculated as follows: [formula] In the case of compounds showing inhibition, retesting was carried out at a plurality of doses to enable calculation of an ED50 for each such compound. "ED50 " designates that dose which provides 50% inhibition. Calculation of the ED50 was either by a standard linear regression method or by estimation from a dose-response curve of three or more points. The compounds so tested and their ED50 s were as follows: […]

[5] = ultraviolet-induced erythema test, compound administered 8 or 22 hours prior to exposure; assay type: in vivo, guinea pig; settings: 0.5 mg./kg.; for Score 0.5 hours after exposure to ultraviolet: 0.5 h reading; for Score 1.0 hours after exposure to ultraviolet: 1.0 h reading; for Score 1.5 hours after exposure to ultraviolet: 1.5 h reading; for Score 2.0 hours after exposure to ultraviolet: 2.0 h reading; for Score 2.5 hours after exposure to ultraviolet: 2.5 h reading; for Score 3.0 hours after exposure to ultraviolet: 3.0 h reading
Experimental: as §1, §2, §3
(§4) Total scores from each treatment group of four guinea pigs were compared to the scores of the control group. The percent inhibition was calculated as follows: [formula] In the case of compounds showing inhibition, retesting was carried out at a plurality of doses to enable calculation of an ED50 for each such compound. "ED50 " designates that dose which provides 50% inhibition. Calculation of the ED50 was either by a standard linear regression method or by estimation from a dose-response curve of three or more points. The compounds so tested and their ED50 s were as follows:
(4-(2-Fluorophenyl)phenyl)acetylene was evaluated again by the procedures of Examples 29-52, except that the compound was administered 8 or 22 hours prior to exposure to ultraviolet light. The dose was uniformly 0.5 mg./kg. Readings were made at half-hour intervals beginning at one-half hour after exposure and ending at three and one-half hours after exposure. Scores were not weighted, and results were recorded only as percent inhibition.

[6] = ultraviolet-induced erythema test, topical application in alcohol solution; assay type: in vivo, guinea pig; settings: for Erythemic score, 1 Hr. after U.V. exposure / Erythemic score, 1.5 Hr. after U.V. exposure / Erythemic score, 2 Hr. after U.V. exposure / Erythemic score, 2.5 Hr. after U.V. exposure: unweighted; for Total erythemic score: control 78
Experimental: as §1, §3, §4
(4-(2-Fluorophenyl)phenyl)acetylene was also evaluated for anti-inflammatory effect when applied topically. The test procedures were the same as those reported in Examples 29-52 except for three differences: the compound was applied topically in an alcohol solution immediately after exposure to the ultraviolet; scores were not weighted; and results were recorded only as percent inhibition.

Structure (SMILES): C#Cc1ccc(-c2ccccc2F)cc1 [(4-(2-fluorophenyl)phenyl)acetylene]
- % Erythema Inhibition ([1]; dog No. 04, 5 mg/kg): 100%
- Total erythemic score ([1]; dog No. 04, 5 mg/kg, control 15): 0
- % Erythema Inhibition ([1]; dog No. 05, 1 mg/kg): 71%
- Total erythemic score ([1]; dog No. 05, 1 mg/kg, control 14): 4
- % Erythema Inhibition ([1]; dog No. 05, 10 mg/kg): 100%
- Total erythemic score ([1]; dog No. 05, 10 mg/kg, control 14): 0
- Percent Inhibition of Volume Increase, Day 7 ([2]; dose 1 (unit not given)): 27% and 22%
- Percent Inhibition of Volume Increase, Day 7 ([2]; dose 3 (unit not given)): 35% and 29%
- Percent Inhibition of Volume Increase, Day 7 ([2]; dose 10 (unit not given)): 30% and 23%
- Percent Inhibition of Volume Increase, Day 14 ([2]; dose 10 (unit not given), Day 14): 5% and 0%
- % Inhibition [3]: 42% and 60%
- ED50 [4]: 0.05 mg/kg
- % Erythema Inhibition ([5]; 8 hours prior to exposure): 71%
- Score 0.5 hours after exposure to ultraviolet ([5]; 8 hours prior to exposure): 0
- Score 1.0 hours after exposure to ultraviolet ([5]; 8 hours prior to exposure): 0
- Score 1.5 hours after exposure to ultraviolet ([5]; 8 hours prior to exposure): 3
- Score 2.0 hours after exposure to ultraviolet ([5]; 8 hours prior to exposure): 6
- Score 2.5 hours after exposure to ultraviolet ([5]; 8 hours prior to exposure): 6
- Score 3.0 hours after exposure to ultraviolet ([5]; 8 hours prior to exposure): 15
- Total Score ([5]; 8 hours prior to exposure, control 104): 30
- % Erythema Inhibition ([5]; 22 hours prior to exposure): 41%
- Score 0.5 hours after exposure to ultraviolet ([5]; 22 hours prior to exposure): 3
- Score 1.0 hours after exposure to ultraviolet ([5]; 22 hours prior to exposure): 4
- Score 1.5 hours after exposure to ultraviolet ([5]; 22 hours prior to exposure): 8
- Score 2.0 hours after exposure to ultraviolet ([5]; 22 hours prior to exposure): 14
- Score 2.5 hours after exposure to ultraviolet ([5]; 22 hours prior to exposure): 17
- Score 3.0 hours after exposure to ultraviolet ([5]; 22 hours prior to exposure): 17
- Total Score ([5]; 22 hours prior to exposure, control 107): 63
- % Inhibition ([6]; 1 μg applied): 28%
- Erythemic score, 1 Hr. after U.V. exposure ([6]; 1 μg applied): 6
- Erythemic score, 1.5 Hr. after U.V. exposure ([6]; 1 μg applied): 13
- Erythemic score, 2 Hr. after U.V. exposure ([6]; 1 μg applied): 18
- Erythemic score, 2.5 Hr. after U.V. exposure ([6]; 1 μg applied): 19
- Total erythemic score ([6]; 1 μg applied): 56
- % Inhibition ([6]; 10 μg applied): 41%
- Erythemic score, 1 Hr. after U.V. exposure ([6]; 10 μg applied): 5
- Erythemic score, 1.5 Hr. after U.V. exposure ([6]; 10 μg applied): 10
- Erythemic score, 2 Hr. after U.V. exposure ([6]; 10 μg applied): 14
- Erythemic score, 2.5 Hr. after U.V. exposure ([6]; 10 μg applied): 17
- Total erythemic score ([6]; 10 μg applied): 46
- % Inhibition ([6]; 100 μg applied): 83%
- Erythemic score, 1 Hr. after U.V. exposure ([6]; 100 μg applied): 0
- Erythemic score, 1.5 Hr. after U.V. exposure ([6]; 100 μg applied): 1
- Erythemic score, 2 Hr. after U.V. exposure ([6]; 100 μg applied): 4
- Erythemic score, 2.5 Hr. after U.V. exposure ([6]; 100 μg applied): 8
- Total erythemic score ([6]; 100 μg applied): 13
